System: FDCP-Mix cells
Assay: in vitro chemotactic assay of FDCP-Mix cells in 96-transwell chambers
Assay type: cell-based
Settings: migration for 14 h
Protocol: Figure: FDCP-Mix cells were subjected to in vitro chemotactic assays. Chemotaxis was assessed in 96-transwell chambers (Neuroprobe, Cabin John, MD) by using polyvinylpyrrolidone-free polycarbonate membranes (Nucleopore, Neuroprobe) with 5-μm pores. Four hundred microliters of IMDM medium was added to the bottom of the well, and was supplemented with varying concentrations of SDF-1α or MIP-3α (R&D Systems). 100 μl of IMDM medium containing 50.000 FDCP-Mix cells were added to the upper wells of the chemotaxis chamber. Additionally 100 μl of medium either with no supplement or supplemented with MIP-3α was added to the upper well. […] Simultaneously FDCP-Mix progenitor cells were coincubated with MIP-3α in concentrations of 10 to 1000 ng/ml medium.

MIP-3α: Macrophage Inflammatory Protein - 3α, CCR6 ligand (R&D Systems)
Chemotactic migration of FDCP-Mix progenitor cells (MIP-3a in the bottom well, 10 to 1000 ng/ml medium): does not induce chemotactic migration | Sensitivity of FDCP-Mix cells to migrate to SDF-1α (SDF-1a 10 ng/ml in bottom well, cells coincubated with agonist (MIP-3α 10 to 1000 ng/ml medium)): does increase the sensitivity
